US20260297081A1, “COMPOUNDS AND METHODS OF TREATING CANCERS” (Cullgen Inc., priority 2023, published 2026)

Target: CDK4 (Homo sapiens, UniProt P11802+Q16531)
Experiment: CDK4 percentage degradation in Calu-1 cells (Table 6)
Format: cell-based
Set-up: Cells that express cyclin D1-3 and CDK4/6 proteins were treated with heterobifunctional compounds; endogenous in cells; host or cells: Calu-1
Conditions: 16 hours; for inhibition at 0.04 µM: 40 nM; for inhibition at 0.2 µM: 200 nM
How it was run: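 Calu-1 cells exposed to heterobifunctional compounds at 40 nM or 200 nM for 16 h. Cyclin D1 and CDK4 levels measured by Western blot of RIPA lysates (BCA-normalised loading), bands quantified by densitometry and expressed as percentage degradation.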

Chain of CDK4 (P11802 2-303 limits assumed): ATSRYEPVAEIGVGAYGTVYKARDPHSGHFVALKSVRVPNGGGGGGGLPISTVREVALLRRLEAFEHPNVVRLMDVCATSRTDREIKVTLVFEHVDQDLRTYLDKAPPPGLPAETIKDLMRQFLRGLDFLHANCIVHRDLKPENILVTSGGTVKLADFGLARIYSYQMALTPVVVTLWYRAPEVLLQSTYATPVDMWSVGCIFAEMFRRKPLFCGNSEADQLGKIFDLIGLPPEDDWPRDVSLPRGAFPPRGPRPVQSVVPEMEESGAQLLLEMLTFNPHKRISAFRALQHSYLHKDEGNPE
Chain of CDK4 (P24385 whole entry partner): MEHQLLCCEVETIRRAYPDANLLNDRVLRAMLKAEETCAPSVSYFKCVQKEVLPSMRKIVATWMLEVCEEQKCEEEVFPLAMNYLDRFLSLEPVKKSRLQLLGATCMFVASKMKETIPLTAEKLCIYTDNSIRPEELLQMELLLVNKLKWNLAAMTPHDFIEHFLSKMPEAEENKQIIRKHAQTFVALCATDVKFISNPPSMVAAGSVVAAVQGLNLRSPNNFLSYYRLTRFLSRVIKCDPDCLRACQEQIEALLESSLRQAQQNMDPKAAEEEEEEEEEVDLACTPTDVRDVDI
Chain of CDK4 (Q16531 2-1140 limits assumed): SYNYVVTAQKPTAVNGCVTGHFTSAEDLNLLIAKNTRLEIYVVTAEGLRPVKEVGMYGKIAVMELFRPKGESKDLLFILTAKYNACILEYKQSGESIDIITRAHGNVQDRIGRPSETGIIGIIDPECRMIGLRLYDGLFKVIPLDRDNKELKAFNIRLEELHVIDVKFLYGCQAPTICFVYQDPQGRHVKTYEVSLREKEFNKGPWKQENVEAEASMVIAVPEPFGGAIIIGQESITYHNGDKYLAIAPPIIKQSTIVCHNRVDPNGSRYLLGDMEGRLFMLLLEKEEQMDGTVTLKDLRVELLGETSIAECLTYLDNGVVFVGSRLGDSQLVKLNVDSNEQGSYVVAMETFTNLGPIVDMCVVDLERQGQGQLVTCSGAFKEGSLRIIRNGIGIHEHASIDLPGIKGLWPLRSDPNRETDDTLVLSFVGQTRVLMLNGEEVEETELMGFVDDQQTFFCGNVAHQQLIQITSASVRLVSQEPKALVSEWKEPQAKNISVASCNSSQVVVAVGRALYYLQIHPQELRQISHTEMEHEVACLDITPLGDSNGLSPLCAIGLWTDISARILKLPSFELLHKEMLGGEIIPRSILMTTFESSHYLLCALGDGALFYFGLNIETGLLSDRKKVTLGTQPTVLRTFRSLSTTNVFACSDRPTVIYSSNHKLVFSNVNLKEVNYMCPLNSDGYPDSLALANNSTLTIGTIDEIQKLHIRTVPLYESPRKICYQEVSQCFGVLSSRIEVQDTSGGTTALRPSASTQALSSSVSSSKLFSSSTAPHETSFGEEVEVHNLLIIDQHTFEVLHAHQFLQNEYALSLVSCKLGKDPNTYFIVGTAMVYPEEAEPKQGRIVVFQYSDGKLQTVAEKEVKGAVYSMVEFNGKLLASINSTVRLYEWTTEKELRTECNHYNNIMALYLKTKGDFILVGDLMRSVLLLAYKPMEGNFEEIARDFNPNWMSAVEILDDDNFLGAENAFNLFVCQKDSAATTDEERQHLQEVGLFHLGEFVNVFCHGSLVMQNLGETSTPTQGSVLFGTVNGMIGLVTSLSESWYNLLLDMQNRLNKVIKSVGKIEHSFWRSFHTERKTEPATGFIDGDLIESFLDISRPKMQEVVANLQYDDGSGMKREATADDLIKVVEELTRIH

SMILES | inhibition at 0.04 µM | inhibition at 0.2 µM
CNc1ccc(C(=O)Nc2ccc(C3CC3)nn2)c(NCCCCCNC(=O)CN2CCN(c3ccc(Nc4ncc5c(C)c(C(C)=O)c(=O)n(C6CCCC6)c5n4)nc3)CC2)n1 [CPD-31, 2-((5-(2-(4-(6-((6-Acetyl-8-cyclopentyl-5-methyl-7-oxo-7,8-dihydropyrido[2,3-d]pyrimidin-2-yl)amino)pyridin-3-yl)piperazin-1-yl)acetamido)pentyl)amino)-N-(6-cyclopropylpyridazin-3-yl)-6-(methylamino)nicotinamide] | < 30% | 50 to 80%
CNc1ccc(C(=O)Nc2ccc(OC)c(C3CC3)n2)c(NC2CC3(CC(NC(=O)CN4CCN(c5ccc(Nc6ncc7c(C)c(C(C)=O)c(=O)n(C8CCCC8)c7n6)nc5)CC4)C3)C2)n1 (stereo not drawn) [CPD-125, 2-((6-(2-(4-(6-((6-Acetyl-8-cyclopentyl-5-methyl-7-oxo-7,8-dihydropyrido[2,3-d]pyrimidin-2-yl)amino)pyridin-3-yl)piperazin-1-yl)acetamido)spiro[3.3]heptan-2-yl)amino)-N-(6-cyclopropyl-5-methoxypyridin-2-yl)-6-(methylamino)nicotinamide] | 30 to 50% | 30 to 50%
CNc1ccc(C(=O)Nc2ccc(N(C)C)nn2)c(NC2CCN(CCNC(=O)CN3CCN(c4ccc(Nc5ncc6c(C)c(C(C)=O)c(=O)n(C7CCCC7)c6n5)nc4)CC3)C2)n1 (stereo not drawn) [CPD-106, 2-((1-(2-(2-(4-(6-((6-Acetyl-8-cyclopentyl-5-methyl-7-oxo-7,8-dihydropyrido[2,3-d]pyrimidin-2-yl)amino)pyridin-3-yl)piperazin-1-yl)acetamido)ethyl)pyrrolidin-3-yl)amino)-N-(6-(dimethylamino)pyridazin-3-yl)-6-(methylamino)nicotinamide] | 30 to 50% | 50 to 80%
CNc1ccc(C(=O)Nc2ccc(N(C)C)nn2)c(NC2CCN(C(=O)CN3CCN(c4ccc(Nc5ncc6c(C)c(C(C)=O)c(=O)n(C7CCCC7)c6n5)nc4)CC3)C2)n1 (stereo not drawn) [CPD-201, 2-((1-(2-(4-(6-((6-acetyl-8-cyclopentyl-5-methyl-7-oxo-7,8-dihydropyrido[2,3-d]pyrimidin-2-yl)amino)pyridin-3-yl)piperazin-1-yl)acetyl)pyrrolidin-3-yl)amino)-N-(6-(dimethylamino)pyridazin-3-yl)-6-(methylamino)nicotinamide] | 30 to 50% | 50 to 80%
CNc1ccc(C(=O)Nc2ccc3c(n2)CCC3)c(NC2CC3(CC(NC(=O)CN4CCN(c5ccc(Nc6ncc7c(C)c(C(C)=O)c(=O)n(C8CCCC8)c7n6)nc5)CC4)C3)C2)n1 (stereo not drawn) [CPD-69, 2-((6-(2-(4-(6-((6-Acetyl-8-cyclopentyl-5-methyl-7-oxo-7,8-dihydropyrido[2,3-d]pyrimidin-2-yl)amino)pyridin-3-yl)piperazin-1-yl)acetamido)spiro[3.3]heptan-2-yl)amino)-N-(6,7-dihydro-5H-cyclopenta[b]pyridin-2-yl)-6-(methylamino)nicotinamide] | 30 to 50% | 50 to 80%
CNc1ccc(C(=O)Nc2cccc(C(F)(F)F)n2)c(NC2CC3(CC(NC(=O)CN4CCN(c5ccc(Nc6ncc7c(C)c(C(C)=O)c(=O)n(C8CCCC8)c7n6)nc5)CC4)C3)C2)n1 (stereo not drawn) [CPD-91, 2-((6-(2-(4-(6-((6-Acetyl-8-cyclopentyl-5-methyl-7-oxo-7,8-dihydropyrido[2,3-d]pyrimidin-2-yl)amino)pyridin-3-yl)piperazin-1-yl)acetamido)spiro[3.3]heptan-2-yl)amino)-6-(methylamino)-N-(6-(trifluoromethyl)pyridin-2-yl)nicotinamide] | < 30% | 30 to 50%
CNc1ccc(C(=O)Nc2ccc(Cl)cn2)c(NCCCCCNC(=O)CN2CCN(c3ccc(Nc4ncc5c(C)c(C(C)=O)c(=O)n(C6CCCC6)c5n4)nc3)CC2)n1 [CPD-20, 2-((5-(2-(4-(6-((6-acetyl-8-cyclopentyl-5-methyl-7-oxo-7,8-dihydropyrido[2,3-d]pyrimidin-2-yl)amino)pyridin-3-yl)piperazin-1-yl)acetamido)pentyl)amino)-N-(5-chloropyridin-2-yl)-6-(methylamino)nicotinamide] | < 30% | –
CNc1ccc(C(=O)Nc2ccc(N(C)C)nn2)c(NC2CN(C(=O)CCCN3CCN(c4ccc(Nc5ncc6c(C)c(C(C)=O)c(=O)n(C7CCCC7)c6n5)nc4)CC3)C2)n1 [CPD-211, 2-((1-(4-(4-(6-((6-acetyl-8-cyclopentyl-5-methyl-7-oxo-7,8-dihydropyrido[2,3-d]pyrimidin-2-yl)amino)pyridin-3-yl)piperazin-1-yl)butanoyl)azetidin-3-yl)amino)-N-(6-(dimethylamino)pyridazin-3-yl)-6-(methylamino)nicotinamide] | 30 to 50% | 30 to 50%
CC(=O)c1c(C)c2cnc(Nc3ccc(N4CCN(CC(=O)NCC5CC(Nc6nc(C(C)C)ccc6C(=O)Nc6cc(C)n(C)n6)C5)CC4)cn3)nc2n(C2CCCC2)c1=O (stereo not drawn) [CPD-212, 2-((3-((2-(4-(6-((6-acetyl-8-cyclopentyl-5-methyl-7-oxo-7,8-dihydropyrido[2,3-d]pyrimidin-2-yl)amino)pyridin-3-yl)piperazin-1-yl)acetamido)methyl)cyclobutyl)amino)-N-(1,5-dimethyl-1H-pyrazol-3-yl)-6-isopropylnicotinamide] | 30 to 50% | 50 to 80%
CC(=O)c1c(C)c2cnc(Nc3ccc(N4CCN(CC(=O)NCCCCCNc5nc(NC6CCC6)ccc5C(=O)Nc5ccc(N(C)C)nn5)CC4)cn3)nc2n(C2CCCC2)c1=O [CPD-59, 2-((5-(2-(4-(6-((6-Acetyl-8-cyclopentyl-5-methyl-7-oxo-7,8-dihydropyrido[2,3-d]pyrimidin-2-yl)amino)pyridin-3-yl)piperazin-1-yl)acetamido)pentyl)amino)-6-(cyclobutylamino)-N-(6-(dimethylamino)pyridazin-3-yl)nicotinamide] | 50 to 80% | 50 to 80%
[2H]C([2H])([2H])Nc1ccc(C(=O)Nc2cccc(C)n2)c(NC2CC3(C2)CC(OC(C)(C)C(=O)N2CCN(c4ccc(Nc5ncc6c(C)c(C(C)=O)c(=O)n(C7CCCC7)c6n5)nc4)CC2)C3)n1 (stereo not drawn) [CPD-226, 2-((6-((1-(4-(6-((6-acetyl-8-cyclopentyl-5-methyl-7-oxo-7,8-dihydropyrido[2,3-d]pyrimidin-2-yl)amino)pyridin-3-yl)piperazin-1-yl)-2-methyl-1-oxopropan-2-yl)oxy)spiro[3.3]heptan-2-yl)amino)-6-((methyl-d3)amino)-N-(6-methylpyridin-2-yl)nicotinamide] | < 30% | 30 to 50%
CNc1ccc(C(=O)Nc2cccc(OC)n2)c(NC2CC3(CC(NC(=O)CN4CCN(c5ccc(Nc6ncc7c(C)c(C(C)=O)c(=O)n(C8CCCC8)c7n6)nc5)CC4)C3)C2)n1 (stereo not drawn) [CPD-161, 2-((6-(2-(4-(6-((6-acetyl-8-cyclopentyl-5-methyl-7-oxo-7,8-dihydropyrido[2,3-d]pyrimidin-2-yl)amino)pyridin-3-yl)piperazin-1-yl)acetamido)spiro[3.3]heptan-2-yl)amino)-N-(6-methoxypyridin-2-yl)-6-(methylamino)nicotinamide] | 50 to 80% | > 80%
CNc1ccc(C(=O)NC2CCC(N(C)C)CC2)c(NCCCCCNC(=O)CN2CCN(c3ccc(Nc4ncc5c(C)c(C(C)=O)c(=O)n(C6CCCC6)c5n4)nc3)CC2)n1 (stereo not drawn) [CPD-48, 2-((5-(2-(4-(6-((6-Acetyl-8-cyclopentyl-5-methyl-7-oxo-7,8-dihydropyrido[2,3-d]pyrimidin-2-yl)amino)pyridin-3-yl)piperazin-1-yl)acetamido)pentyl)amino)-N-(4-(dimethylamino)cyclohexyl)-6-(methylamino)nicotinamide] | < 30% | < 30%
CNc1ccc(C(=O)Nc2cccc(C)n2)c(NC2CC3(C2)CN(C(=O)C(C)(C)N2CCN(c4ccc(Nc5ncc6c(C)c(C(C)=O)c(=O)n(C7CCCC7)c6n5)nc4)CC2)C3)n1 [CPD-176, 2-((2-(2-(4-(6-((6-acetyl-8-cyclopentyl-5-methyl-7-oxo-7,8-dihydropyrido[2,3-di]pyrimidin-2-yl)amino)pyridin-3-yl)piperazin-1-yl)-2-methylpropanoyl)-2-azaspiro[3.3]heptan-6-yl)amino)-6-(methylamino)-N-(6-methylpyridin-2-yl)nicotinamide] | < 30% | 50 to 80%
CC(=O)c1c(C)c2cnc(Nc3ccc(N4CCN(CC(=O)NCCCCCNc5nc(C(F)(F)F)ccc5C(=O)Nc5ccc(N(C)C)nn5)CC4)cn3)nc2n(C2CCCC2)c1=O [CPD-68, 2-((5-(2-(4-(6-((6-Acetyl-8-cyclopentyl-5-methyl-7-oxo-7,8-dihydropyrido[2,3-d]pyrimidin-2-yl)amino)pyridin-3-yl)piperazin-1-yl)acetamido)pentyl)amino)-N-(6-(dimethylamino)pyridazin-3-yl)-6-(trifluoromethyl)nicotinamide] | 30 to 50% | 50 to 80%
CNc1ccc(C(=O)Nc2ccc(N(C)C)nn2)c(NC(=O)CN2CCN(c3ccc(Nc4ncc5c(C)c(C(C)=O)c(=O)n(C6CCCC6)c5n4)nc3)CC2)n1 [CPD-194, 2-(2-(4-(6-((6-acetyl-8-cyclopentyl-5-methyl-7-oxo-7,8-dihydropyrido[2,3-d]pyrimidin-2-yl)amino)pyridin-3-yl)piperazin-1-yl)acetamido)-N-(6-(dimethylamino)pyridazin-3-yl)-6-(methylamino)nicotinamide] | < 30% | < 30%
CNc1ccc(C(=O)Nc2cccc(N(C)C)n2)c(NC2CC3(CC(NC(=O)CN4CCN(c5ccc(Nc6ncc7c(C)c(C(C)=O)c(=O)n(C8CCCC8)c7n6)nc5)CC4)C3)C2)n1 (stereo not drawn) [CPD-88, 2-((6-(2-(4-(6-((6-Acetyl-8-cyclopentyl-5-methyl-7-oxo-7,8-dihydropyrido[2,3-d]pyrimidin-2-yl)amino)pyridin-3-yl)piperazin-1-yl)acetamido)spiro[3.3]heptan-2-yl)amino)-N-(6-(dimethylamino)pyridin-2-yl)-6-(methylamino)nicotinamide] | 30 to 50% | 50 to 80%
